# Legend:
# Saccharomyces cerevisiae = assay: Assay for Antifungal Activity (yeast agar well zone of inhibition); format: cell-based; conditions: 48 hours
# Protocol: Yeast organisms (Saccharomyces cerevisiae) in logarithmic growth were plated on complete agar medium (YPD). The compound was dissolved in an appropriate aqueous or organic solvent and placed in wells punched in the agar. Plates were incubated for 48 hours and zones of inhibition were measured.
# IC12^(nM) refers to the concentration of drug in the antifungal assay which produces a 12 mm zone of inhibition.
# [1] = system: Spleen cells from BDF1 female mice; assay: Mitogenesis Assay for Immunosuppressive Activity (concanavalin A-stimulated spleen cells, 3H-thymidine); format: cell-based; conditions: Concanavalin A (5 μg/ml), 72 hours
# Protocol: Spleen cells from BDF1 female mice were established in RPMI with 10% fetal calf serum at 5×10^6 /ml. One hundred […] aliquots of this suspension (5×10^5 cells) were dispensed into 96-well round-bottomed microtiter plates (Linbro, Flow Laboratories). Concanavalin A (5 μg/ml) was added as the mitogenic stimulus, and the final volume in the microtiter wells was adjusted to 200 μL with RPMI. Cell cultures were incubated for 72 hours at 37 degrees C. in a 5% CO2 atmosphere and pulsed with 0.5μ Ci ^3 H-thymidine (specific activity […]) for the last 18 hour culture. The cells were harvested on an automated multiple sample harvester and cell-associated radioactivity counted in a Beckman liquid scintillation counter. The results are expressed as the mean values derived from quadruplicate measurements. Cell viability was determined by trypan blue exclusion after 72 hours of incubation. Compounds to be tested were added to the microtiter plates at the appropriate dilutions prior to the addition of cells.
smiles,measurement,setting,value
CO[C@H]1C[C@@H]2CC[C@@H](C)C(O)(CC(=O)N3CCCC[C@H]3C(=O)O[C@H]([C@H](C)C[C@@H]3CC[C@@H](O)[C@H](OC)C3)CC(=O)[C@H](C)/C=C(\C)[C@@H](O)[C@@H](OC)C(=O)[C@H](C)C[C@H](C)/C=C/C=C/C=C/1C)O2 [14-methylene rapamycin],IC (12 mm zone of inhibition),"Saccharomyces cerevisiae; Saccharomyces cerevisiae on YPD agar, read-out: Yeast IC12 (concentration of drug in the antifungal assay which produces a 12 mm zone of inhibition)",0.013 µM
same,antifungal activity (in words),Saccharomyces cerevisiae; Saccharomyces cerevisiae,has both antifungal and immunomodulatory activity
same,immunosuppressive / immunomodulatory activity (in words),[1],has both antifungal and immunomodulatory activity
same,IC50,"[1]; Mus musculus, 37 degrees C., 3H-thymidine",15 nM

# From US5491229A, “Rapamycin derivative” (SmithKline Beecham PLC, priority 1991, dated 1996)
